{"source": "PubChem BioAssay AID1963975", "about": "(Molecular Pharmacology Branch, DTP, NCI, 2024);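 also: spheroids exposed to agents for 7 days before viability read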;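 as to viability, T/C: 100% = DMSO vehicle treated spheroids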", "tested_on": "624824-186-R-J2-PDC multicell spheroids, viability", "test": "Anticancer human tumor 624824-186-R-J2-PDC patient-derived colon adenocarcinoma cell line growth inhibition [PI3K]", "conditions": "for IC50: curve of first compound; for viability, T/C: stronger effect = lower value", "in_short": "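Three cell types, namely tumor cells, endothelial cells and mesenchymal stem cells, formed each spheroid. Combinations with four PI3K inhibitors were screened at clinically achievable concentrations decreasing by half-log, and spheroid viability was recorded.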", "key": {"[1]": {"conditions": "second compound 0.00316 µM, first compound 0.0316 µM"}, "[2]": {"conditions": "second compound 0.00316 µM, first compound 0.1 µM"}, "[3]": {"conditions": "second compound 0.00316 µM, first compound 0.316 µM"}, "[4]": {"conditions": "second compound 0.00316 µM, first compound 1 µM"}, "[5]": {"conditions": "second compound 0.00316 µM, first compound 3.16 µM"}, "[6]": {"conditions": "second compound 0.00316 µM, first compound 10 µM"}, "[7]": {"conditions": "second compound 0.01 µM, first compound 0.0316 µM"}, "[8]": {"conditions": "second compound 0.01 µM, first compound 0.1 µM"}, "[9]": {"conditions": "second compound 0.01 µM, first compound 0.316 µM"}, "[10]": {"conditions": "second compound 0.01 µM, first compound 1 µM"}, "[11]": {"conditions": "second compound 0.01 µM, first compound 3.16 µM"}, "[12]": {"conditions": "second compound 0.01 µM, first compound 10 µM"}, "[13]": {"conditions": "second compound 0.0316 µM, first compound 0.0316 µM"}, "[14]": {"conditions": "second compound 0.0316 µM, first compound 0.1 µM"}, "[15]": {"conditions": "second compound 0.0316 µM, first compound 0.316 µM"}, "[16]": {"conditions": "second compound 0.0316 µM, first compound 1 µM"}, "[17]": {"conditions": "second compound 0.0316 µM, first compound 3.16 µM"}, "[18]": {"conditions": "second compound 0.0316 µM, first compound 10 µM"}, "[19]": {"conditions": "second compound 0.1 µM, first compound 0.0316 µM"}, "[20]": {"conditions": "second compound 0.1 µM, first compound 0.1 µM"}, "[21]": {"conditions": "second compound 0.1 µM, first compound 0.316 µM"}, "[22]": {"conditions": "second compound 0.1 µM, first compound 1 µM"}, "[23]": {"conditions": "second compound 0.1 µM, first compound 3.16 µM"}, "[24]": {"conditions": "second compound 0.1 µM, first compound 10 µM"}, "[25]": {"conditions": "second compound 0.316 µM, first compound 0.0316 µM"}, "[26]": {"conditions": "second compound 0.316 µM, first compound 0.1 µM"}, "[27]": {"conditions": "second compound 0.316 µM, first compound 0.316 µM"}, "[28]": {"conditions": "second compound 0.316 µM, first compound 1 µM"}, "[29]": {"conditions": "second compound 0.316 µM, first compound 3.16 µM"}, "[30]": {"conditions": "second compound 0.316 µM, first compound 10 µM"}, "[31]": {"conditions": "second compound 1 µM, first compound 0.0316 µM"}, "[32]": {"conditions": "second compound 1 µM, first compound 0.1 µM"}, "[33]": {"conditions": "second compound 1 µM, first compound 0.316 µM"}, "[34]": {"conditions": "second compound 1 µM, first compound 1 µM"}, "[35]": {"conditions": "second compound 1 µM, first compound 3.16 µM"}, "[36]": {"conditions": "second compound 1 µM, first compound 10 µM"}}, "data": [{"smiles": "C#Cc1c(F)ccc2cc(O)cc(-c3ncc4c(N5CC6CCC(C5)N6)nc(OCC56CCCN5CC(F)C6)nc4c3F)c12", "note": "(centres undefined) + CC(Nc1ccc2c(c1)OCCn1cc(N3C(=O)OCC3C(F)F)nc1-2)C(N)=O", "values": [{"measurement": "IC50", "setting": "second compound 0.00316 µM", "result": "> 10", "unit": "µM"}, {"measurement": "IC50", "setting": "second compound 0.01 µM", "result": "> 10", "unit": "µM"}, {"measurement": "IC50", "setting": "second compound 0.0316 µM", "result": "> 10", "unit": "µM"}, {"measurement": "IC50", "setting": "second compound 0.1 µM", "result": "> 10", "unit": "µM"}, {"measurement": "IC50", "setting": "second compound 0.316 µM", "result": "> 10", "unit": "µM"}, {"measurement": "IC50", "setting": "second compound 1 µM", "result": "> 10", "unit": "µM"}, {"measurement": "viability, T/C", "setting": "[1]", "result": 90, "unit": "%"}, {"measurement": "viability, T/C", "setting": "[2]", "result": 98.3, "unit": "%"}, {"measurement": "viability, T/C", "setting": "[3]", "result": 123, "unit": "%"}, {"measurement": "viability, T/C", "setting": "[4]", "result": 87.4, "unit": "%"}, {"measurement": "viability, T/C", "setting": "[5]", "result": 105, "unit": "%"}, {"measurement": "viability, T/C", "setting": "[6]", "result": 106, "unit": "%"}, {"measurement": "viability, T/C", "setting": "[7]", "result": 116, "unit": "%"}, {"measurement": "viability, T/C", "setting": "[8]", "result": 103, "unit": "%"}, {"measurement": "viability, T/C", "setting": "[9]", "result": 82.6, "unit": "%"}, {"measurement": "viability, T/C", "setting": "[10]", "result": 89, "unit": "%"}, {"measurement": "viability, T/C", "setting": "[11]", "result": 94.9, "unit": "%"}, {"measurement": "viability, T/C", "setting": "[12]", "result": 86.5, "unit": "%"}, {"measurement": "viability, T/C", "setting": "[13]", "result": 91.6, "unit": "%"}, {"measurement": "viability, T/C", "setting": "[14]", "result": 116, "unit": "%"}, {"measurement": "viability, T/C", "setting": "[15]", "result": 79.2, "unit": "%"}, {"measurement": "viability, T/C", "setting": "[16]", "result": 102, "unit": "%"}, {"measurement": "viability, T/C", "setting": "[17]", "result": 106, "unit": "%"}, {"measurement": "viability, T/C", "setting": "[18]", "result": 82.2, "unit": "%"}, {"measurement": "viability, T/C", "setting": "[19]", "result": 121, "unit": "%"}, {"measurement": "viability, T/C", "setting": "[20]", "result": 88.1, "unit": "%"}, {"measurement": "viability, T/C", "setting": "[21]", "result": 80.6, "unit": "%"}, {"measurement": "viability, T/C", "setting": "[22]", "result": 82.5, "unit": "%"}, {"measurement": "viability, T/C", "setting": "[23]", "result": 93.3, "unit": "%"}, {"measurement": "viability, T/C", "setting": "[24]", "result": 100, "unit": "%"}, {"measurement": "viability, T/C", "setting": "[25]", "result": 101, "unit": "%"}, {"measurement": "viability, T/C", "setting": "[26]", "result": 76.2, "unit": "%"}, {"measurement": "viability, T/C", "setting": "[27]", "result": 79, "unit": "%"}, {"measurement": "viability, T/C", "setting": "[28]", "result": 85.1, "unit": "%"}, {"measurement": "viability, T/C", "setting": "[29]", "result": 86.8, "unit": "%"}, {"measurement": "viability, T/C", "setting": "[30]", "result": 81.8, "unit": "%"}, {"measurement": "viability, T/C", "setting": "[31]", "result": 78.1, "unit": "%"}, {"measurement": "viability, T/C", "setting": "[32]", "result": 80.3, "unit": "%"}, {"measurement": "viability, T/C", "setting": "[33]", "result": 82, "unit": "%"}, {"measurement": "viability, T/C", "setting": "[34]", "result": 94.4, "unit": "%"}, {"measurement": "viability, T/C", "setting": "[35]", "result": 93.2, "unit": "%"}, {"measurement": "viability, T/C", "setting": "[36]", "result": 91.1, "unit": "%"}]}, {"smiles": "CC1(C)CCC(Nc2ncc(C(F)(F)F)c(-c3c[nH]c4c(P(C)(C)=O)c(C#N)ccc34)n2)CN1", "note": "(centres undefined) + CC(Nc1ccc2c(c1)OCCn1cc(N3C(=O)OCC3C(F)F)nc1-2)C(N)=O", "values": [{"measurement": "IC50", "setting": "second compound 0.00316 µM", "result": 3.92, "unit": "µM"}, {"measurement": "IC50", "setting": "second compound 0.01 µM", "result": 3.61, "unit": "µM"}, {"measurement": "IC50", "setting": "second compound 0.0316 µM", "result": 4.16, "unit": "µM"}, {"measurement": "IC50", "setting": "second compound 0.1 µM", "result": 3.16, "unit": "µM"}, {"measurement": "IC50", "setting": "second compound 0.316 µM", "result": 3.46, "unit": "µM"}, {"measurement": "IC50", "setting": "second compound 1 µM", "result": 3.23, "unit": "µM"}, {"measurement": "viability, T/C", "setting": "[1]", "result": 73.8, "unit": "%"}, {"measurement": "viability, T/C", "setting": "[2]", "result": 84.7, "unit": "%"}, {"measurement": "viability, T/C", "setting": "[3]", "result": 86.4, "unit": "%"}, {"measurement": "viability, T/C", "setting": "[4]", "result": 98.7, "unit": "%"}, {"measurement": "viability, T/C", "setting": "[5]", "result": 59.7, "unit": "%"}, {"measurement": "viability, T/C", "setting": "[6]", "result": 7.81, "unit": "%"}, {"measurement": "viability, T/C", "setting": "[7]", "result": 71.8, "unit": "%"}, {"measurement": "viability, T/C", "setting": "[8]", "result": 70.3, "unit": "%"}, {"measurement": "viability, T/C", "setting": "[9]", "result": 85, "unit": "%"}, {"measurement": "viability, T/C", "setting": "[10]", "result": 99.8, "unit": "%"}, {"measurement": "viability, T/C", "setting": "[11]", "result": 55.6, "unit": "%"}, {"measurement": "viability, T/C", "setting": "[12]", "result": 7.27, "unit": "%"}, {"measurement": "viability, T/C", "setting": "[13]", "result": 66.1, "unit": "%"}, {"measurement": "viability, T/C", "setting": "[14]", "result": 72.4, "unit": "%"}, {"measurement": "viability, T/C", "setting": "[15]", "result": 93.3, "unit": "%"}, {"measurement": "viability, T/C", "setting": "[16]", "result": 108, "unit": "%"}, {"measurement": "viability, T/C", "setting": "[17]", "result": 63.9, "unit": "%"}, {"measurement": "viability, T/C", "setting": "[18]", "result": 5.65, "unit": "%"}, {"measurement": "viability, T/C", "setting": "[19]", "result": 74.4, "unit": "%"}, {"measurement": "viability, T/C", "setting": "[20]", "result": 85.3, "unit": "%"}, {"measurement": "viability, T/C", "setting": "[21]", "result": 87.1, "unit": "%"}, {"measurement": "viability, T/C", "setting": "[22]", "result": 105, "unit": "%"}, {"measurement": "viability, T/C", "setting": "[23]", "result": 50, "unit": "%"}, {"measurement": "viability, T/C", "setting": "[24]", "result": 5.2, "unit": "%"}, {"measurement": "viability, T/C", "setting": "[25]", "result": 68.2, "unit": "%"}, {"measurement": "viability, T/C", "setting": "[26]", "result": 81.9, "unit": "%"}, {"measurement": "viability, T/C", "setting": "[27]", "result": 90.2, "unit": "%"}, {"measurement": "viability, T/C", "setting": "[28]", "result": 93.7, "unit": "%"}, {"measurement": "viability, T/C", "setting": "[29]", "result": 53.9, "unit": "%"}, {"measurement": "viability, T/C", "setting": "[30]", "result": 4.99, "unit": "%"}, {"measurement": "viability, T/C", "setting": "[31]", "result": 78.5, "unit": "%"}, {"measurement": "viability, T/C", "setting": "[32]", "result": 83.1, "unit": "%"}, {"measurement": "viability, T/C", "setting": "[33]", "result": 91.1, "unit": "%"}, {"measurement": "viability, T/C", "setting": "[34]", "result": 72.9, "unit": "%"}, {"measurement": "viability, T/C", "setting": "[35]", "result": 51.5, "unit": "%"}, {"measurement": "viability, T/C", "setting": "[36]", "result": 5.93, "unit": "%"}]}]}
